Laboratory results taken from patent publication US6376521B1, “A3 adenosine receptor antagonists” (The United States of America as represented by the …, priority 1998, dated 2002).
Like-named read-outs stand apart in the source and are kept apart here.

How the values were obtained:
A2A adenosine receptors [1] = biological target: T1, A2A adenosine receptors (Rattus norvegicus, UniProt P30543); settings: Table 3, cited from earlier work; for Ki: compounds 59, 68, values taken from van Rhee et al. 1996 and Jiang et al. 1997, read-out: rA2A Ki ± S.E.M.
T1 construct: from tissue

A2A adenosine receptors [2] = biological target: T1, A2A adenosine receptors; assay: Displacement of specific [3H]CGS 21680 binding in rat striatal membranes; settings: for Ki: [3H]CGS 21680, rat striatal membranes, n = 3-6, read-out: rA2A Ki ± S.E.M.
human A3 receptors = biological target: T2, human A3 receptors (Homo sapiens, UniProt P0DMS8); assay: Displacement of specific [125I]AB-MECA binding at human A3 receptors expressed in HEK cells, in membranes; settings: for Ki: [125I]AB-MECA, HEK cell membranes, n = 3-4, read-out: hA3 Ki ± S.E.M.; for rA1/hA3: ratio of affinities rat A1 vs human A3
T2 construct: expressed in transfected cells
T2 sequence (P0DMS8 1-318): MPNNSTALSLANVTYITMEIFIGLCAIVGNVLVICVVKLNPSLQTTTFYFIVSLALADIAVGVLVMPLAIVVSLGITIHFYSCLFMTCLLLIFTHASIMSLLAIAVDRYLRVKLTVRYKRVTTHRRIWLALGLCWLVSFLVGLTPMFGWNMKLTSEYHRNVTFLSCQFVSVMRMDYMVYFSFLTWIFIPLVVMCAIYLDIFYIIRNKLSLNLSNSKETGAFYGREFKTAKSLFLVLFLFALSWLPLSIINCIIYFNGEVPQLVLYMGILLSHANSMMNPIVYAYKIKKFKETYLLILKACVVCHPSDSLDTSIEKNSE

rat A3 receptors = biological target: T3, rat A3 receptors (Rattus norvegicus, UniProt P28647); assay: Displacement of specific [125I]AB-MECA binding at rat A3 receptors stably expressed in CHO cells; settings: Table 4; for Ki: [125I]AB-MECA, CHO cells, n = 3-5, read-out: rA3 Ki; for rA3/hA3: ratio of affinities at rat vs. human A3 receptors; for rA1/rA3: ratio of affinities rat A1 vs rat A3
T3 construct: expressed in transfected cells
T3 sequence (P28647 1-320): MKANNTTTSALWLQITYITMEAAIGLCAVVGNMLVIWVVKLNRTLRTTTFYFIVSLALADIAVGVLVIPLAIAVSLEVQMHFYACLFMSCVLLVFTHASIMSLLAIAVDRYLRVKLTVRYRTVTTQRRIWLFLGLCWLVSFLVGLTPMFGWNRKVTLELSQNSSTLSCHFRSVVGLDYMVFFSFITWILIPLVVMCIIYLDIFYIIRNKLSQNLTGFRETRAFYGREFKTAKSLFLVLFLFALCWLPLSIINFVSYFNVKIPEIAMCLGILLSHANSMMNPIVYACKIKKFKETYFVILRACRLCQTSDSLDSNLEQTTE

A1 adenosine receptors = biological target: T4, A1 adenosine receptors (Rattus norvegicus, UniProt P25099); assay: Displacement of specific [3H]R-PIA binding in rat brain membranes; settings: for rA1 percentage of specific binding displaced: Table 2; for rA1 percentage of specific binding displaced / inhibition at 100 µM: at 10^−4 M; for inhibition at 100 µM: Table 3, read-out: rA1 % inhibition (percentage of specific binding displaced); for Ki: Table 2, compounds 33-58, [3H]R-PIA, rat brain membranes, n = 3-5, read-out: rA1 Ki ± S.E.M.
T4 construct: from tissue
T4 sequence (P25099 1-326): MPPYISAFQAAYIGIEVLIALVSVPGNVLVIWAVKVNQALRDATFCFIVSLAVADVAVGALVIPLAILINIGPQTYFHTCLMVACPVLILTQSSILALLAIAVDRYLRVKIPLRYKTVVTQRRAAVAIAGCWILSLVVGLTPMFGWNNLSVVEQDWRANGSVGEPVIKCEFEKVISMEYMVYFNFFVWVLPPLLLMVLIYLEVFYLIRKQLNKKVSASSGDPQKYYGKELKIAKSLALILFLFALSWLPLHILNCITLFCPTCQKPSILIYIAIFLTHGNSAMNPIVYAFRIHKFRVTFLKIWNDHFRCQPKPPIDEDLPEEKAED

T1 sequence (P30543 whole entry): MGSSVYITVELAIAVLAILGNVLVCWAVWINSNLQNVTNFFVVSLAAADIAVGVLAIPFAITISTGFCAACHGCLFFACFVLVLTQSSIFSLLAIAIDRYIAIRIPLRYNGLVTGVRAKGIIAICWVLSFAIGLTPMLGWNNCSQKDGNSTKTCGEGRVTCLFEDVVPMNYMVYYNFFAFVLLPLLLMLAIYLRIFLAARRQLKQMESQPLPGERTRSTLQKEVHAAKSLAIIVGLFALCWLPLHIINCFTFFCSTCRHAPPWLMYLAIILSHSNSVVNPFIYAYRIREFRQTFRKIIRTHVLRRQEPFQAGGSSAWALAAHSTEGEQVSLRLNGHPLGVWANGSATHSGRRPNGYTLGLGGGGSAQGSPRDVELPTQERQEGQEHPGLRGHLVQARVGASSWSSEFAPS

Row | Ki (rat A3 receptors) [nM] | rA3/hA3 (rat A3 receptors) | rA1/rA3 (rat A3 receptors) | SMILES | Ki (A2A adenosine receptors [2]; Table 2, compounds 33-58) [nM] | Ki (human A3 receptors; Table 2, compounds 33-58) [nM] | rA1/hA3 (human A3 receptors; Table 2) | also measured
1 |  |  |  | CCOC(=O)C1=C(C)NC(c2ccccc2)=C(C(=O)OCc2ccccc2)C1C#Cc1ccccc1 (stereo not drawn) [Compound 69] |  |  |  | rA2A displacement of specific binding (class d) (A2A adenosine receptors [1]; at 10^−4 M, compound 69, value taken from the literature): d (10^−4) (Displacement of < 10% of specific binding at the indicated concentration (M).)
2 |  |  |  | CCOC(=O)C1=C(C)NC(c2ccccc2)=C(C(=O)OCC)C1C (stereo not drawn) [Compound 59] |  |  |  | Ki (A2A adenosine receptors [1]): 35900 ± 15300 nM
3 | 650 ± 70 | 3.4 | >100 | CCCc1c(C(=O)SCC)c(C)nc(-c2ccccc2)c1C(=O)OCC [Compound 38, 5-Ethyl-2-methyl-4-propyl-3-(ethylsulfanylcarbonyl)-6-phenylpyridine-5-carboxylate] | 7530 ± 2700 | 194 ± 51 | >700 | rA1 percentage of specific binding displaced (A1 adenosine receptors): 29 ± 6% (10^−4)
4 | 1800 ± 320 | 0.69 | >50 | CCSC(=O)c1c(C)nc(-c2ccccc2)c(C(=O)OCc2ccccc2)c1CC [Compound 39, 5-Benzyl 2-methyl-4-ethyl-3-(ethylsulfanylcarbonyl)-6-phenylpyridine-5-carboxylate] | 12800 ± 2900 | 2610 ± 960 | >40 | rA1 percentage of specific binding displaced (A1 adenosine receptors): 20 ± 8% (10^−4)
5 | 2520 ± 880 | 2.8 | >30 | CCOC(=O)C1=C(c2ccccc2)NC(CC)=C(C(=O)SCC)C1CC (racemic) [Compound 75, 5-Ethyl 2,4-diethyl-6-phenyl-3-(ethylsulfanylcarbonyl)-1,4-(±)-dihydropyridine-5-carboxylate] |  |  |  | Ki (A2A adenosine receptors [2]; Table 3): 29100 ± 9900 nM; Ki (human A3 receptors; Table 3): 907 ± 44 nM; rA1/hA3 (human A3 receptors; Table 3): >50; inhibition at 100 µM (A1 adenosine receptors): 34 ± 7%
6 |  |  |  | CCOC(=O)C1=C(C)NC(c2ccccc2)=C(C(=O)OCC)C1C=Cc1ccccc1 (stereo not drawn) [Compound 68] |  |  |  | Ki (A2A adenosine receptors [1]): 4770 ± 290 nM
7 | 2730 ± 140 | 1.3 | >30 | CCCC1=C(C(=O)SCC)C(CC)C(C(=O)OCC)=C(c2ccccc2)N1 (racemic) [Compound 76, 5-Ethyl 2-propyl-4-ethyl-6-phenyl-3-(ethylsulfanylcarbonyl)-1,4-(±)-dihydropyridine-5-carboxylate] |  |  |  | rA2A displacement of specific binding (class d) (A2A adenosine receptors [2]; Table 3, at 10^−4 M): d (10^−4) (Displacement of < 10% of specific binding at the indicated concentration (M).); Ki (human A3 receptors; Table 3): 2090 ± 40 nM; rA1/hA3 (human A3 receptors; Table 3): >20; inhibition at 100 µM (A1 adenosine receptors): 26 ± 19%

Row | SMILES | Ki (rat A3 receptors) [nM] | rA3/hA3 (rat A3 receptors) | rA1/rA3 (rat A3 receptors) | Ki (A2A adenosine receptors [2]; Table 2, compounds 33-58) [nM] | Ki (human A3 receptors; Table 2, compounds 33-58) [nM] | rA1/hA3 (human A3 receptors; Table 2) | also measured
8 | CCSC(=O)c1c(CC)nc(-c2ccccc2)c(C(=O)OCCO)c1CC [Compound 50, 5-Hydroxylethyl 2,4-diethyl-3-(ethylsulfanylcarbonyl)-6-phenylpyridine-5-carboxylate] | 2870 ± 480 | 15 | 6.1 | 10000 ± 3000 | 188 ± 61 | 93 | Ki (A1 adenosine receptors): 17400 ± 5290 nM
9 | CCCc1nc(-c2ccccc2)c(C(=O)OCC)c(CC)c1C(=O)SCC [Compound 55, 5-Ethyl 2-propyl-4-ethyl-3-(ethylsulfanylcarbonyl)-6-phenylpyridine-5-carboxylate] | 590 ± 40 | 18 | 28 | 2820 ± 820 | 33.3 ± 10.7 | 500 | Ki (A1 adenosine receptors): 16700 ± 3000 nM
